Entries after “also recorded” stand apart in the source; their conditions may differ. Where a SMILES comes first, the peptide text is derived from it. The star is where a group is joined. Cbz = O=C(OCc1ccccc1)*
What was measured:
[1] = tested on: ABCA1; experiment: RAW 264.7 Q-PCR: ABCA1; assay type: cell-based, murine; settings: overexpression of Hes1 in RAW 264.7 cells; FIG. 10b
[2] = tested on: CRBPII; experiment: RAW 264.7 Q-PCR: CRBPII; assay type: cell-based, murine; settings: overexpression of Hes1 in RAW 264.7 cells; FIG. 10b
[3] = in adults; cited from earlier work
[4] = tested on: Cyp3A11; experiment: Liver RNA Q-PCR, polyI:C/APAP-treated mice: Cyp3A11; settings: APAP 350 mg/kg i.p., 6 h
[5] = tested on: Cyp1A2; experiment: Liver RNA Q-PCR, polyI:C/APAP-treated mice: Cyp1A2; settings: APAP 350 mg/kg i.p., 6 h
[6] = mouse, in vivo
[7] = tested on: Oatp2; design: species or system mice; settings: mouse
[8] = tested on: RXRα; design: species or system mice; settings: mouse, in vivo
[9] = mouse, in vivo; remark: listed apart in the source
[10] = tested on: UGT1A6; assay type: cell-based, human; settings: Huh7 cells with RXRα silenced by siRNA; ASA 20 μg/ml 24 hours
[11] = tested on: Cyp3A11; settings: mouse
[12] = tested on: UGT1A6; design: species or system mice; settings: mouse
[13] = tested on: RXRα; experiment: BMM anti-RXRα Western blot; assay type: cell-based, Murine; settings: for RXRα protein loss following polyI:C treatment: LG268 10 nM or GW3965 1 μM added to polyI:C 1 μg/ml, 24 hrs, FIG. 8d
[14] = mouse, in vivo; remark: listed apart in the source
[15] = Survival following APAP treatment; assay type: in vivo, mice; settings: PCN 75 mg/kg i.p. 24 h before APAP 175 mg/kg; FIG. 4C
Method: FIG. 4: Percentage survival following APAP treatment with or without polyI:C. (A) Wildtype (n=8) fasted and were treated with 0.1% NaCl or polyI:C (100 μg) intravenous (i.v.) 24 hours prior to treatment with APAP (600 mg/kg) by intraperitoneal (i.p.) injection. (B) Wildtype and IRF3−/− (n=6-8) fasted and were treated with 0.1% NaCl or polyI:C (100 μg) intravenous (i.v.) 24 hours prior to treatment with APAP (600 mg/kg) by intraperitoneal (i.p.) injection. (C) Wildtype mice (n=6-8) fasted and were treated with 0.1% NaCl or polyI:C (100 μg) intravenous (i.v.) and PCN (75 mg/kg) intraperitoneal (i.p.) 24 hours prior to treatment with APAP (175 mg/kg) by intraperitoneal (i.p.) injection.
Age and sex matched 6-9 week old mice were used for all experiments. C57/B16 mice were obtained from Jackson Laboratory. IRF3^−/− mice were obtained from Dr. T. Taniguchi. For APAP hepatotoxicity analysis, mice fasted for […] and then administered Vehicle (0.1% NaCl) or APAP (175-600 mg/kg) by intraperitoneal injection (i.p.). For serum and histological studies, mice were sacrificed at 6-7 hours post injection and serum and liver samples were retrieved. For survival studies, mice were studied for up to 5 days. For polyI:C studies, mice were also treated with 0.1% NaCl or polyI:C (100 μg) intravenous (i.v.) 12-24 hours prior to APAP treatment. To study the effects of PCN on APAP treatment, mice were treated with PCN (75 mg/kg) or control (1% DMSO, corn oil) by intraperitoneal (i.p.) 12-24 hours prior to APAP treatment. To study the effects of ethanol (EtOH) on APAP treatment, mice were given 20% EtOH in water ad libidum for 5 days prior to APAP therapy. PolyI:C treatment for these experiments occurred at Day 3 and Day 5. Serum alanine aminotransferase (ALT) levels were determined using manufacturer's protocol (TECO Diagnostics). For H&E staining, liver samples were fixed in formalin for 48 hours. H&E stainings were done by UCLA Tissue Procurement Core Laboratory (TPCL).

[16] = H&E liver histology in APAP hepatotoxicity; settings: pretreatment with PCN or ethanol, lower levels of APAP (175 mg/kg); FIG. 3B
[17] = Serum ALT in APAP hepatotoxicity
[18] = addition of PCN
[19] = tested on: RXRα; assay type: cell-based, Murine

CC1=C(/C=C/C(C)=C\C=C\C(C)=C\C(=O)O)C(C)(C)CCC1 [9cRA, 9-cis retinoic acid]
induction of ABCA1 by 9cRA [1]: prevents
induction of CRBPII by 9cRA [2]: prevents

CC(=O)Nc1ccc(O)cc1 [APAP, Acetaminophen]
single acute toxic ingestion [3]: approximately 7 g
induction of Cyp3A11 by APAP [4]: does not
induction of Cyp1A2 by APAP [5]: does not

CC(=O)Oc1ccccc1C(=O)O [ASA, acetylsalicylic acid]
blood glucose levels [6]: significantly decreased
serum ALT [6]: increased
serum ammonia [6]: increased
total bilirubin levels [6]: increased
Oatp2 mRNA in vivo [7]: not other PXR/RXR genes such as Oatp2
RXRα protein in liver [8]: significant loss of RXRα protein
hepatotoxicity (liver necrosis or fatty degeneration) [9]: caused severe hepatotoxicity as evidenced by liver necrosis or fatty degeneration
hepatotoxicity from polyI:C plus ASA in knockout mice [9]: did not occur in IRF3^−/− mice, but did occur in IFNAR^−/− mice
hepatotoxicity, agent alone [9]: did not cause significant hepatotoxicity
UGT1A6 induction by ASA [10]: impaired
CYP3A11 mRNA in vivo [11]: potently increased
UGT1A6 mRNA in vivo [12]: potently increased

O=C(O)Cc1cccc(OCCCN(Cc2cccc(C(F)(F)F)c2Cl)CC(c2ccccc2)c2ccccc2)c1 [GW3965]
RXRα protein loss following polyI:C treatment [13]: more obvious

C[C@H](CCC(=O)O)[C@H]1CC[C@H]2[C@@H]3CC[C@@H]4C[C@H](O)CC[C@]4(C)[C@H]3CC[C@]12C [LCA, Lithocholic acid]
serum alanine aminotransferase (ALT) levels [14]: significant elevation of serum alanine aminotransferase (ALT) levels

Cc1cc2c(cc1C1(c3ccc(C(=O)O)cn3)CC1)C(C)(C)CCC2(C)C [LG268]
RXRα protein loss following polyI:C treatment [13]: more obvious

CC(C)C[C@@H](C=O)NC(=O)[C@H](CC(C)C)NC(=O)[C@H](CC(C)C)NC(=O)OCc1ccccc1 [MG132] (Cbz-Leu-Leu-Leu-aldehyde)
RXRα protein loss after 9cRA and polyI:C co-stimulation ([13]; MG132 10 μM, BMMs, FIG. 8f): prevented loss of RXRα protein

CC(=O)[C@H]1[C@H](C#N)C[C@H]2[C@@H]3CC=C4C[C@@H](O)CC[C@]4(C)[C@H]3CC[C@@]21C [PCN, Pregnenolone 16alpha-carbonitrile]
sensitivity to APAP (survival) [15]: increases sensitivity to lower levels of APAP
cell necrosis (H&E) [16]: results in severe necrosis similar to higher doses of APAP
Oatp2 mRNA in vivo [7]: not other PXR/RXR genes such as Oatp2
hepatotoxicity as measured by serum ALT ([17]; PCN 75 mg/kg i.p. 24 h before APAP 175 mg/kg, FIG. 2B): caused less toxic levels of APAP to result in severe hepatotoxicity
LCA-induced serum ALT with PCN co-treatment [14]: reduced
RXRα protein expression in liver [8]: further loss of RXRα protein expression; also recorded: potent loss of RXRα protein
protection from VSV plus LCA-induced hepatotoxicity [18]: could not be blocked
CYP3A11 mRNA in vivo [11]: potently increased
UGT1A6 mRNA in vivo [12]: potently increased

CC(/C=C/C(=O)NO)=C\[C@@H](C)C(=O)c1ccc(N(C)C)cc1 [TSA, trichostatin A]
effect on polyI:C repression of RXRα mRNA [19]: prevented polyI:C repression of RXRα, and allowed polyI:C to induce RXRα

CCO [ethanol, Ethanol]
cell necrosis (H&E) [16]: results in severe necrosis similar to higher doses of APAP
sensitivity to APAP (serum ALT) ([17]; 20% EtOH ad libidum 5 days, APAP 175 mg/kg, FIG. 2C): results in similar sensitivity to APAP as PCN treatment

Source: patent publication US20090181910A1, “METHOD OF PREVENTION AND ALLEVIATION OF TOXICITY BY MODULATION OF IRF3” (priority 2006, published 2009)
